Patent publication US20100210664A1, “BENZENESULFONAMIDE COMPOUNDS SUITABLE FOR TREATING DISORDERS THAT RESPOND TO MODULATION OF THE DOPAMINE D3 RECEPTOR” (priority 2007, published 2010)
pKi: −log10 of the molar value.

Experiments:
[1] = target: T1, human dopamine D3 receptors (Homo sapiens, UniProt P35462); experiment: Dopamine D3 receptor binding, displacement of [125I]-iodosulpride; conditions: membranes of HEK-293 cells stably expressing human D3; 0.1 nM [125I]-iodosulpride
T1 construct: expressed in transfected cells; host or cells: HEK-293 cells (membranes)
Protocol: (§1) The substance to be tested was either dissolved in methanol/Chremophor® (BASF-AG) or in dimethyl sulfoxide and then diluted with water to the desired concentration.
(§2) Each assay mixture was run in triplicate.
The incubation buffer contained 50 mM tris, 120 mM NaCl, 5 mM KCl, 2 mM CaCl2, 2 mM MgCl2 and 0.1% bovine serum albumin, 10 μM quinolone and 0.1% ascorbic acid (prepared fresh daily). The buffer was adjusted to pH 7.4 with HCl.
(§3) After having been incubated at 25° C. for 60 minutes, the assay mixtures were filtered through a Whatman GF/B glass fiber filter under vacuum using a cell collecting device. The filters were transferred to scintillation viols using a filter transfer system. After 4 ml of Ultima Gold® (Packard) have been added, the samples were shaken for one hour and the radioactivity was then counted in a Beta-Counter (Packard, Tricarb 2000 or 2200CA). The cpm values were converted into dpm using a standard quench series and the program belonging to the instrument.
(§4) The inhibition curves were analyzed by means of iterative nonlinear regression analysis using the Statistical Analysis System (SAS) which is similar to the “LIGAND” program described by Munson and Rodbard.

[2] = target: T2, human dopamine D2L receptors (long isoform) (Homo sapiens, UniProt P14416); experiment: Dopamine D2L receptor binding, displacement of [125I] iodospiperone; conditions: ratio Ki(D2L)/Ki(D3); HEK-293 membranes
T2 construct: expressed in transfected cells; host or cells: HEK-293 cells (membranes)
Protocol: as §1, §2
The incubation buffer contained 50 mM tris, 120 mM NaCl, 5 mM KCl, 2 mM CaCl2, 2 mM MgCl2 and 0.1% bovine serum albumin. The buffer was adjusted to pH 7.4 with HCl.
as §3, §4

T1 sequence (P35462 whole entry): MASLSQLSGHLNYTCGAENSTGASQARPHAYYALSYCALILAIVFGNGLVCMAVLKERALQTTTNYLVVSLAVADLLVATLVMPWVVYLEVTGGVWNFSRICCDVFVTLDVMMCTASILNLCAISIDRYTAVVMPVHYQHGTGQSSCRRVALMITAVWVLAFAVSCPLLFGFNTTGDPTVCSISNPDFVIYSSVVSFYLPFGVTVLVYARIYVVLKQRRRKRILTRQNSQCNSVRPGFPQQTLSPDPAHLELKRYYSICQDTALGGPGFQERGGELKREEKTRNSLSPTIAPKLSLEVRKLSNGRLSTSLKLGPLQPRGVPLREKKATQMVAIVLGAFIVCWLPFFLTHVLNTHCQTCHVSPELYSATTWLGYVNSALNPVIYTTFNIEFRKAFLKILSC
T2 sequence (P14416 whole entry, canonical isoform): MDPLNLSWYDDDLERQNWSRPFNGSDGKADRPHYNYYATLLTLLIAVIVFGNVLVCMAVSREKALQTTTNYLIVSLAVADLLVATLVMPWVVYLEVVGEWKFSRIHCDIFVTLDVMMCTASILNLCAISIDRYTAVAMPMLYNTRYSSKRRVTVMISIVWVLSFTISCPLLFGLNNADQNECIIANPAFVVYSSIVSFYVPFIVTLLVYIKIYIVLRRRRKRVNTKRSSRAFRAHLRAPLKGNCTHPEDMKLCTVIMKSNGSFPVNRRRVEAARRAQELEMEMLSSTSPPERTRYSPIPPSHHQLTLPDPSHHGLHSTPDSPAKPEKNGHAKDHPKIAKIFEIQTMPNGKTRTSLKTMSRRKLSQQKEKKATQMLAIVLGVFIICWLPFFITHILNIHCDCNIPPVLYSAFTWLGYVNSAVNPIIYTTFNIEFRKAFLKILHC

Row | SMILES | pKi [1] | Selectivity vs. D2L, Ki(D2L)/Ki(D3) [2]
1 | Cc1nc(N2CCN[C@@H](C)C2)ccc1NS(=O)(=O)c1ccc([C@H](C)CF)cc1 [Example 1, 4-((S)-2-Fluoro-1-methyl-ethyl)-N-[2-methyl-6-((S)-3-methyl-piperazin-1-yl)-pyridin-3-yl]-benzenesulfonamide] | > 8.00 | >50
2 | Cc1nc(N2CCN[C@@H](C)C2)ccc1NS(=O)(=O)c1ccc([C@@H](C)CF)cc1 [Example 2, 4-((R)-2-Fluoro-1-methyl-ethyl)-N-[2-methyl-6-((S)-3-methyl-piperazin-1-yl)-pyridin-3-yl]-benzenesulfonamide] | > 8.00 | >50
3 | Cc1nc(N2CCNCC2)c(Br)cc1NS(=O)(=O)c1ccc([C@H](C)CF)cc1 [Example 7, N-(5-Bromo-2-methyl-6-piperazin-1-yl-pyridin-3-yl)-4-((S)-2-fluoro-1-methyl-ethyl)-benzenesulfonamide, reference compound] | > 6.00 | >10
4 | Cc1nc(N2CCNCC2)ccc1NS(=O)(=O)c1ccc(C(C)C(F)F)cc1 (centres unmarked) [Example 8, 4-(2,2-Difluoro-1-methyl-ethyl)-N-(2-methyl-6-piperazin-1-yl-pyridin-3-yl)-benzenesulfonamide] | > 8.00 | >50
5 | COc1nc(N2CCNCC2)ccc1NS(=O)(=O)c1ccc([C@@H](C)CF)cc1 [Example 14, 4-((R)-2-Fluoro-1-methyl-ethyl)-N-(2-methoxy-6-piperazin-1-yl-pyridin-3-yl)-benzenesulfonamide] | > 8.00 | >50
6 | COc1nc(N2CCNCC2)ccc1NS(=O)(=O)c1ccc([C@H](C)CF)cc1 [Example 15, 4-((S)-2-Fluoro-1-methyl-ethyl)-N-(2-methoxy-6-piperazin-1-yl-pyridin-3-yl)-benzenesulfonamide] | > 8.00 | >50
7 | COc1nc(N2CCNCC2)ccc1NS(=O)(=O)c1ccc(C(C)C(F)F)cc1 (centres unmarked) [Example 16, 4-(2,2-Difluoro-1-methyl-ethyl)-N-(2-methoxy-6-piperazin-1-yl-pyridin-3-yl)-benzenesulfonamide] | > 8.00 | >50

Now from value to molecule:

Row | pKi [1] | Selectivity vs. D2L, Ki(D2L)/Ki(D3) [2] | SMILES
8 | > 8.00 | >50 | Cc1nc(N2CCNCC2)ccc1NS(=O)(=O)c1ccc([C@@H](C)CF)cc1 [Example 5, 4-((R)-2-Fluoro-1-methyl-ethyl)-N-[2-methyl-6-piperazin-1-yl-pyridin-3-yl]-benzenesulfonamide]
9 | > 8.00 | >50 | Cc1nc(N2CCNCC2)ccc1NS(=O)(=O)c1ccc([C@H](C)CF)cc1 [Example 6, 4-((S)-2-Fluoro-1-methyl-ethyl)-N-[2-methyl-6-piperazin-1-yl-pyridin-3-yl]-benzenesulfonamide]
10 | > 8.00 | >50 | Cc1nc(N2CCNCC2)ccc1NS(=O)(=O)c1ccc([C@H](C)C(F)F)cc1 [Example 9, 4-((S)-2,2-Difluoro-1-methyl-ethyl)-N-(2-methyl-6-piperazin-1-yl-pyridin-3-yl)-benzenesulfonamide]
11 | > 8.00 | >50 | Cc1nc(N2CCNCC2)ccc1NS(=O)(=O)c1ccc([C@@H](C)C(F)F)cc1 [Example 10, 4-((R)-2,2-Difluoro-1-methyl-ethyl)-N-(2-methyl-6-piperazin-1-yl-pyridin-3-yl)-benzenesulfonamide]
12 | > 8.00 | >50 | Cc1nc(N2CCNCC2)ccc1NS(=O)(=O)c1ccc(C(C)C(F)(F)F)cc1 (centres unmarked) [Example 11, 4-(2,2,2-Trifluoro-1-methyl-ethyl)-N-(2-methyl-6-piperazin-1-yl-pyridin-3-yl)-benzenesulfonamide]
13 | > 8.00 | >50 | Cc1nc(N2CCNCC2)ccc1NS(=O)(=O)c1ccc([C@@H](C)C(F)(F)F)cc1 [Example 12, 4-((R)-2,2,2-Trifluoro-1-methyl-ethyl)-N-(2-methyl-6-piperazin-1-yl-pyridin-3-yl)-benzenesulfonamide]
14 | > 8.00 | >50 | Cc1nc(N2CCNCC2)ccc1NS(=O)(=O)c1ccc([C@H](C)C(F)(F)F)cc1 [Example 13, 4-((S)-2,2,2-Trifluoro-1-methyl-ethyl)-N-(2-methyl-6-piperazin-1-yl-pyridin-3-yl)-benzenesulfonamide]
15 | > 8.00 | >50 | COc1nc(N2CCNCC2)ccc1NS(=O)(=O)c1ccc(C(C)C(F)(F)F)cc1 (centres unmarked) [Example 17, N-(2-Methoxy-6-piperazin-1-yl-pyridin-3-yl)-4-(2,2,2-trifluoro-1-methyl-ethyl)-benzenesulfonamide]
16 | > 8.00 | >50 | COc1nc(N2CCNCC2)ccc1NS(=O)(=O)c1ccc([C@H](C)C(F)(F)F)cc1 [Example 18, N-(2-Methoxy-6-piperazin-1-yl-pyridin-3-yl)-4-((S)-2,2,2-trifluoro-1-methyl-ethyl)-benzenesulfonamide]
